US8952024B2, “Herbicidal pyrimidone derivatives” (E I du Pont de Nemours and Company, priority 2009, dated 2015)

Experiments:
Test in all cases: Test B pre-/postemergence plant response
Format in all cases: in vivo
[1] = test system: cocklebur (Xanthium strumarium); settings: for Cocklebur plant response rating (0 to 100 scale): 62 g ai/ha, 0 is no effect, 13 to 15 days
In short: (§1)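 Seeds sown in loam–sand blend were treated preemergence, and plants at 2–18 cm (1- to 4-leaf stage) in peat-based medium were treated postemergence; compounds were formulated in non-phytotoxic solvent with surfactant. After 13–15 days in greenhouse, response was visually rated against controls, 0 (no effect) to 100 (complete control).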

corn (Zea mays) = settings: for Corn plant response rating (0 to 100 scale): 62 g ai/ha, 0 is no effect, 13 to 15 days
In short: as §1

[2] = test system: blackgrass (Alopecurus myosuroides); settings: for Blackgrass plant response rating (0 to 100 scale): 62 g ai/ha, 0 is no effect, 13 to 15 days
In short: as §1

kochia (Kochia scoparia) = settings: for Kochia plant response rating (0 to 100 scale): 62 g ai/ha, 0 is no effect, 13 to 15 days
In short: as §1

[3] = test system: downy bromegrass (Bromus tectorum); settings: for Bromegrass, Downy plant response rating (0 to 100 scale): 62 g ai/ha, 0 is no effect, 13 to 15 days
In short: as §1

[4] = test system: woolly cupgrass (Eriochloa villosa); settings: for Cupgrass, Woolly plant response rating (0 to 100 scale): 62 g ai/ha, 0 is no effect, 13 to 15 days
In short: as §1

[5] = test system: johnsongrass (Sorghum halepense); settings: for Johnsongrass plant response rating (0 to 100 scale): 62 g ai/ha, 0 is no effect, 13 to 15 days
In short: as §1

[6] = test system: giant foxtail (Setaria faberii); settings: for Foxtail, Giant plant response rating (0 to 100 scale): 62 g ai/ha, 0 is no effect, 13 to 15 days
In short: as §1

[7] = test system: goosegrass (Eleusine indica); settings: for Goosegrass plant response rating (0 to 100 scale): 62 g ai/ha, 0 is no effect, 13 to 15 days
In short: as §1

[8] = test system: velvetleaf (Abutilon theophrasti); settings: for Velvetleaf plant response rating (0 to 100 scale): 62 g ai/ha, 0 is no effect, 13 to 15 days
In short: as §1

[9] = test system: Surinam grass (Brachiaria decumbens); settings: for Surinam Grass plant response rating (0 to 100 scale): 62 g ai/ha, 0 is no effect, 13 to 15 days
In short: as §1

[10] = test system: large crabgrass (Digitaria sanguinalis); settings: for Crabgrass, Large plant response rating (0 to 100 scale): 62 g ai/ha, 0 is no effect, 13 to 15 days
In short: as §1

wild oat (Avena fatua) = settings: for Oat, Wild plant response rating (0 to 100 scale): 62 g ai/ha, 0 is no effect, 13 to 15 days
In short: as §1

[11] = test system: yellow nutsedge (Cyperus esculentus); settings: for Nutsedge, Yellow plant response rating (0 to 100 scale): 62 g ai/ha, 0 is no effect, 13 to 15 days
In short: as §1

[12] = test system: morningglory (Ipomoea coccinea); settings: for Morningglory plant response rating (0 to 100 scale): 62 g ai/ha, 0 is no effect, 13 to 15 days
In short: as §1

[13] = test system: green foxtail (Setaria viridis); settings: for Foxtail, Green plant response rating (0 to 100 scale): 62 g ai/ha, 0 is no effect, 13 to 15 days
In short: as §1

soybean (Glycine max) = settings: for Soybean plant response rating (0 to 100 scale): 62 g ai/ha, 0 is no effect, 13 to 15 days
In short: as §1

[14] = 31 g ai/ha, postemergence, scale 0 to 100, 0 is no effect, 100 is complete control
[15] = postemergence, 100 is complete control
[16] = Postemergence, 125 g ai/ha, visual rating after 13 to 15 days, scale 0 (no effect) to 100 (complete control)
[17] = Postemergence, 250 g ai/ha, scale 0 to 100 (0 no effect, 100 complete control)

O=C1CCCC(O)=C1C(=O)c1cnc(C2CCCC2)n(-c2ccccc2)c1=O [Compound 92]
90: Kochia plant response rating (0 to 100 scale) (kochia (Kochia scoparia); [15]) | Plant response rating, Goosegrass [7, 17] | Crabgrass, Large plant response rating (0 to 100 scale) [10, 15] | Plant response rating, Soybean (soybean (Glycine max); [14])
25: Plant response rating, Cocklebur [1, 14] | Cupgrass, Woolly plant response rating (0 to 100 scale) [4, 15] | Plant response rating, Surinam Grass [9, 14]
35: Corn plant response rating (0 to 100 scale) (corn (Zea mays); [15])
95: Plant response rating, Velvetleaf [8, 14] | Morningglory plant response rating (0 to 100 scale) [12, 15]
0: Plant response rating, Blackgrass [2, 14] | Blackgrass plant response rating (0 to 100 scale) [2, 15] | Plant response rating, Bromegrass, Downy [3, 14] | Plant response rating, Oat, Wild (wild oat (Avena fatua); [14])
80: Cocklebur plant response rating (0 to 100 scale) [1, 15] | Plant response rating, Crabgrass, Large [10, 14] | Plant response rating, Morningglory [12, 14] | Foxtail, Green plant response rating (0 to 100 scale) [13, 15]
45: Plant response rating, Corn (corn (Zea mays); [16]) | Plant response rating, Nutsedge, Yellow [11, 14]
20: Plant response rating, Corn (corn (Zea mays); [14]) | Plant response rating, Bromegrass, Downy [3, 16] | Plant response rating, Bromegrass, Downy [3, 17] | Plant response rating, Johnsongrass [5, 14]
75: Plant response rating, Kochia (kochia (Kochia scoparia); [14]) | Foxtail, Giant plant response rating (0 to 100 scale) [6, 15] | Plant response rating, Surinam Grass [9, 17] | Plant response rating, Nutsedge, Yellow [11, 17] | Plant response rating, Foxtail, Green [13, 14]
85: Johnsongrass plant response rating (0 to 100 scale) [5, 15]
10: Plant response rating, Cupgrass, Woolly [4, 14] | Plant response rating, Oat, Wild (wild oat (Avena fatua); [17])
5: Plant response rating, Blackgrass [2, 16] | Plant response rating, Blackgrass [2, 17] | Bromegrass, Downy plant response rating (0 to 100 scale) [3, 15] | Oat, Wild plant response rating (0 to 100 scale) (wild oat (Avena fatua); [15])
100: Plant response rating, Kochia (kochia (Kochia scoparia); [17]) | Plant response rating, Johnsongrass [5, 17] | Velvetleaf plant response rating (0 to 100 scale) [8, 15] | Plant response rating, Velvetleaf [8, 17] | Plant response rating, Crabgrass, Large [10, 17] | Plant response rating, Morningglory [12, 17]
98: Plant response rating, Cocklebur [1, 16] | Plant response rating, Cocklebur [1, 17] | Plant response rating, Foxtail, Giant [6, 17] | Plant response rating, Crabgrass, Large [10, 16] | Plant response rating, Foxtail, Green [13, 17] | Soybean plant response rating (0 to 100 scale) (soybean (Glycine max); [15]) | Plant response rating, Soybean (soybean (Glycine max); [17])
70: Plant response rating, Cupgrass, Woolly [4, 17] | Goosegrass plant response rating (0 to 100 scale) [7, 15]
65: Plant response rating, Cupgrass, Woolly [4, 16] | Plant response rating, Foxtail, Giant [6, 14] | Surinam Grass plant response rating (0 to 100 scale) [9, 15] | Nutsedge, Yellow plant response rating (0 to 100 scale) [11, 15]
60: Plant response rating, Corn (corn (Zea mays); [17]) | Plant response rating, Goosegrass [7, 14]

CCCn1c(-c2ccsc2)ncc(C(=O)C2=C(O)CCCC2=O)c1=O [Compound 93]
55: Plant response rating, Soybean (soybean (Glycine max); [14])
5: Blackgrass plant response rating (0 to 100 scale) [2, 15] | Plant response rating, Oat, Wild (wild oat (Avena fatua); [17])
45: Corn plant response rating (0 to 100 scale) (corn (Zea mays); [15]) | Plant response rating, Cupgrass, Woolly [4, 14] | Cupgrass, Woolly plant response rating (0 to 100 scale) [4, 15] | Plant response rating, Nutsedge, Yellow [11, 14]
50: Plant response rating, Corn (corn (Zea mays); [16]) | Plant response rating, Surinam Grass [9, 14] | Plant response rating, Foxtail, Green [13, 14]
75: Plant response rating, Goosegrass [7, 17]
95: Plant response rating, Cocklebur [1, 16]
10: Plant response rating, Johnsongrass [5, 14] | Johnsongrass plant response rating (0 to 100 scale) [5, 15]
30: Plant response rating, Blackgrass [2, 16] | Plant response rating, Blackgrass [2, 17]
70: Plant response rating, Cocklebur [1, 14] | Plant response rating, Cupgrass, Woolly [4, 17] | Plant response rating, Johnsongrass [5, 17] | Plant response rating, Foxtail, Giant [6, 14] | Plant response rating, Surinam Grass [9, 17] | Plant response rating, Crabgrass, Large [10, 14] | Plant response rating, Nutsedge, Yellow [11, 17] | Plant response rating, Morningglory [12, 14]
98: Plant response rating, Cocklebur [1, 17] | Plant response rating, Kochia (kochia (Kochia scoparia); [17]) | Plant response rating, Velvetleaf [8, 17] | Plant response rating, Soybean (soybean (Glycine max); [17])
60: Plant response rating, Corn (corn (Zea mays); [17]) | Plant response rating, Goosegrass [7, 14] | Nutsedge, Yellow plant response rating (0 to 100 scale) [11, 15] | Foxtail, Green plant response rating (0 to 100 scale) [13, 15]
90: Cocklebur plant response rating (0 to 100 scale) [1, 15] | Velvetleaf plant response rating (0 to 100 scale) [8, 15] | Plant response rating, Crabgrass, Large [10, 17] | Plant response rating, Foxtail, Green [13, 17]
0: Plant response rating, Corn (corn (Zea mays); [14]) | Plant response rating, Blackgrass [2, 14] | Plant response rating, Bromegrass, Downy [3, 14] | Bromegrass, Downy plant response rating (0 to 100 scale) [3, 15] | Plant response rating, Bromegrass, Downy [3, 16] | Plant response rating, Bromegrass, Downy [3, 17] | Plant response rating, Oat, Wild (wild oat (Avena fatua); [14]) | Oat, Wild plant response rating (0 to 100 scale) (wild oat (Avena fatua); [15])
80: Foxtail, Giant plant response rating (0 to 100 scale) [6, 15] | Crabgrass, Large plant response rating (0 to 100 scale) [10, 15] | Plant response rating, Crabgrass, Large [10, 16] | Morningglory plant response rating (0 to 100 scale) [12, 15] | Soybean plant response rating (0 to 100 scale) (soybean (Glycine max); [15])
100: Plant response rating, Morningglory [12, 17]
85: Kochia plant response rating (0 to 100 scale) (kochia (Kochia scoparia); [15]) | Plant response rating, Foxtail, Giant [6, 17] | Plant response rating, Velvetleaf [8, 14]
65: Plant response rating, Kochia (kochia (Kochia scoparia); [14]) | Plant response rating, Cupgrass, Woolly [4, 16] | Goosegrass plant response rating (0 to 100 scale) [7, 15] | Surinam Grass plant response rating (0 to 100 scale) [9, 15]

CCCCCCn1c(-c2ccccc2)ncc(C(=O)C2=C(O)CCCC2=O)c1=O [Compound 94]
20: Plant response rating, Blackgrass [2, 17] | Plant response rating, Nutsedge, Yellow [11, 14] | Nutsedge, Yellow plant response rating (0 to 100 scale) [11, 15]
10: Blackgrass plant response rating (0 to 100 scale) [2, 15] | Plant response rating, Blackgrass [2, 16] | Plant response rating, Foxtail, Green [13, 14]
15: Johnsongrass plant response rating (0 to 100 scale) [5, 15]
45: Plant response rating, Cocklebur [1, 14] | Cocklebur plant response rating (0 to 100 scale) [1, 15] | Plant response rating, Johnsongrass [5, 17] | Plant response rating, Goosegrass [7, 14]
70: Plant response rating, Corn (corn (Zea mays); [16]) | Plant response rating, Cupgrass, Woolly [4, 17] | Goosegrass plant response rating (0 to 100 scale) [7, 15] | Velvetleaf plant response rating (0 to 100 scale) [8, 15] | Plant response rating, Crabgrass, Large [10, 14]
85: Plant response rating, Goosegrass [7, 17]
75: Foxtail, Giant plant response rating (0 to 100 scale) [6, 15] | Crabgrass, Large plant response rating (0 to 100 scale) [10, 15] | Morningglory plant response rating (0 to 100 scale) [12, 15]
65: Cupgrass, Woolly plant response rating (0 to 100 scale) [4, 15] | Plant response rating, Cupgrass, Woolly [4, 16] | Plant response rating, Foxtail, Giant [6, 14] | Plant response rating, Nutsedge, Yellow [11, 17] | Plant response rating, Soybean (soybean (Glycine max); [14])
98: Plant response rating, Foxtail, Giant [6, 17]
30: Plant response rating, Oat, Wild (wild oat (Avena fatua); [17])
80: Plant response rating, Corn (corn (Zea mays); [17]) | Plant response rating, Velvetleaf [8, 17] | Plant response rating, Surinam Grass [9, 17] | Plant response rating, Foxtail, Green [13, 17] | Soybean plant response rating (0 to 100 scale) (soybean (Glycine max); [15])
5: Plant response rating, Blackgrass [2, 14] | Oat, Wild plant response rating (0 to 100 scale) (wild oat (Avena fatua); [15])
95: Plant response rating, Soybean (soybean (Glycine max); [17])
100: Plant response rating, Morningglory [12, 17]
55: Corn plant response rating (0 to 100 scale) (corn (Zea mays); [15]) | Kochia plant response rating (0 to 100 scale) (kochia (Kochia scoparia); [15]) | Plant response rating, Morningglory [12, 14]
0: Plant response rating, Corn (corn (Zea mays); [14]) | Plant response rating, Bromegrass, Downy [3, 14] | Bromegrass, Downy plant response rating (0 to 100 scale) [3, 15] | Plant response rating, Bromegrass, Downy [3, 16] | Plant response rating, Bromegrass, Downy [3, 17] | Plant response rating, Oat, Wild (wild oat (Avena fatua); [14])
60: Plant response rating, Cocklebur [1, 16] | Surinam Grass plant response rating (0 to 100 scale) [9, 15] | Foxtail, Green plant response rating (0 to 100 scale) [13, 15]
90: Plant response rating, Cocklebur [1, 17] | Plant response rating, Kochia (kochia (Kochia scoparia); [17]) | Plant response rating, Crabgrass, Large [10, 16] | Plant response rating, Crabgrass, Large [10, 17]
